# Data from patent EP3046573B1, “AMYLIN ANALOGUES” (Zealand Pharma A/S, priority 2013, dated 2015).
# Read-outs that look alike come from different tables or passages of the source. Numbered stars: 1 amine (or outer) side, 2 acyl side, 3 side chain; on linkers, the order of the positions; unused ones are H or OH. Bridge positions count the residues as written; N and C are the ends. Square brackets hold non-standard residues; d marks the D form. Peptide text beside a SMILES is read from it. * marks the point of attachment. C20 diacid = O=C(O)CCCCCCCCCCCCCCCCCCC(=O)*; γGlu = O=C(O)[C@H](CCC(=O)[*:2])N[*:1]; NMeI = CC[C@H](C)[C@H](NC)C(=O)O; Sar = CNCC(=O)O
# Key:
# [1] = Solubility assessment (turbidity absorbance at 325 nm); format: physicochemical; conditions: stock 2 mg/ml diluted 1:1, ambient temperature (typically 25°C), n=1; for Solubility, Acetate buffer pH 4: 100 mM acetate buffer pH 4.0; for Solubility, Acetate buffer pH 5: 100 mM acetate buffer pH 5.0; for Solubility, Histidine buffer pH 6: 100 mM histidine buffer pH 6.0; for Solubility, Histidine buffer pH 7: 100 mM histidine buffer pH 7.0; for Solubility, Phosphate buffer pH 6: 100 mM phosphate buffer pH 6.0; for Solubility, Phosphate buffer pH 7: 100 mM phosphate buffer pH 7.0; for Solubility, Phosphate buffer pH 7.5: 100 mM phosphate buffer pH7.5
# Method in brief: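 Read-out: turbidity as absorbance at 325 nm (280 nm also read), single samples, ambient temperature of typically 25°C. Samples were a 1:1 mix of 2 mg/ml stock (water, pH 2.5) with 100 mM acetate, histidine or phosphate buffers spanning pH 4.0–7.5. Cut-off: A325 ≤ 0.02 indicates ≥ 1 mg/ml.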
# [2] = target: T1, human calcitonin receptor (hCTR2) (Homo sapiens, UniProt P30988); assay: hCTR2 assay: induction of cAMP (AlphaScreen cAMP Assay kit) in COS7 cells expressing hCTR2; format: cell-based
# T1 construct: expressed in transfected cells
# T1 sequence (P30988 25-474): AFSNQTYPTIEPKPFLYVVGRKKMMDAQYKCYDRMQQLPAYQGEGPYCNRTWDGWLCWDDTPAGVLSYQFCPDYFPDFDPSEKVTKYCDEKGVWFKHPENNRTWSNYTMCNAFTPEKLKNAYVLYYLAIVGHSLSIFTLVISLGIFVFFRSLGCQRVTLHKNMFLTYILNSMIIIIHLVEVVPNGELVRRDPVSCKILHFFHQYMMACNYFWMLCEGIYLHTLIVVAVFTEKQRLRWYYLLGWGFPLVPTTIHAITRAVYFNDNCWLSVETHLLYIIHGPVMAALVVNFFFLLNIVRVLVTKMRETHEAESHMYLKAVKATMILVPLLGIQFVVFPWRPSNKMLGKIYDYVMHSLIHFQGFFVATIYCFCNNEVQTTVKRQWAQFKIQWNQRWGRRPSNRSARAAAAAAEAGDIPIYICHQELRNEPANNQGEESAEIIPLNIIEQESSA
# Method in brief: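 cAMP induction was measured by AlphaScreen in COS7 cells stably expressing hCTR2 without RAMPs, after 15 min at 37° C with increasing peptide concentrations, 100 µM IBMX and 0.1% casein (Tyrode, pH 7.4). A 4-parameter logistic fit gave EC50 and % efficacy versus pramlintide.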
# [3] = target: T2, human amylin receptor 3 (hAMYR3) consisting of hCTR2 co-expressed with human Receptor Activity Modifying Protein 3 (hRAMP3) (Homo sapiens, UniProt O60896+P30988); assay: hAMYR3 assay: induction of cAMP (AlphaScreen cAMP Assay kit) in COS7 cells expressing hAMYR3; format: cell-based
# T2 construct: expressed in transfected cells
# T2 sequence (P30988 25-474): T1 sequence (P30988 25-474)
# T2 sequence (O60896 24-148 partner): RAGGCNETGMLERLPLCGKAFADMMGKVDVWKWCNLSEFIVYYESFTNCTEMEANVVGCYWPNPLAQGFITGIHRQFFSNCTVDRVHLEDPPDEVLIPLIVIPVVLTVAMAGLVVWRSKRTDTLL
# Method in brief: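 cAMP accumulation read by AlphaScreen in lysates of RAMP-naive COS7 cells stably transfected with hCTR2 plus hRAMP3. Cells exposed to peptide dilutions for 15 min, 37° C, with 100 µM IBMX; 4PL fitting gave EC50 and efficacy relative to pramlintide.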
# [4] = cAMP induction in COS7 cells expressing hAMYR3, average of a minimum of 3 determinations, read-out: hAMY R3 EC50
# [5] = cAMP induction in COS7 cells expressing hCTR2, average of a minimum of 3 determinations, read-out: hCTR2 EC50
SMILES,"Solubility, Acetate buffer pH 4 [1]","Solubility, Acetate buffer pH 5 [1]","Solubility, Histidine buffer pH 6 [1]","Solubility, Histidine buffer pH 7 [1]","Solubility, Phosphate buffer pH 6 [1]","Solubility, Phosphate buffer pH 7 [1]","Solubility, Phosphate buffer pH 7.5 [1]",EC50 [2],"EC50 [3, 4]","EC50 [2, 5]",EC50 [3]
"CC[C@H](C)[C@@H](C(=O)N[C@@H](CC(C)C)C(=O)N[C@@H](CO)C(=O)N[C@@H](CO)C(=O)N[C@H](C(=O)N[C@@H](CCC(=O)O)C(=O)N[C@H](C(=O)NCC(=O)N[C@@H](CO)C(=O)N[C@@H](CCC(=O)O)C(=O)N[C@H](C(=O)N1CCC[C@H]1C(N)=O)[C@@H](C)O)C(C)C)[C@@H](C)O)N(C)C(=O)[C@H](C)NC(=O)CN(C)C(=O)[C@H](Cc1ccccc1)NC(=O)[C@H](CO)NC(=O)[C@H](CO)NC(=O)[C@H](CO)NC(=O)[C@H](CO)NC(=O)[C@H](CCCNC(=N)N)NC(=O)[C@H](Cc1c[nH]cn1)NC(=O)[C@H](CC(C)C)NC(=O)[C@H](Cc1ccccc1)NC(=O)[C@H](CCC(=O)O)NC(=O)[C@H](C)NC(=O)[C@H](CC(C)C)NC(=O)[C@H](CCCNC(=N)N)NC(=O)[C@H](CCC(N)=O)NC(=O)[C@@H](NC(=O)[C@H](C)NC(=O)[C@@H]1CSSC[C@H](NC(=O)[C@H](CCCNC(=N)N)NC(=O)CC[C@H](NC(=O)CCCCCCCCCCCCCCCCCCC(=O)O)C(=O)O)C(=O)N[C@@H](CO)C(=O)N[C@@H]([C@@H](C)O)C(=O)N[C@@H](C)C(=O)N[C@@H]([C@@H](C)O)C(=O)N1)[C@@H](C)O [Compound 126, [19CD]-isoGlu-RC()STATC()ATQRLAEFLHRSSSSF-Gly(Me)-A-Ile(Me)-LSSTEVGSETP-NH2] ({C20 diacid-γGlu}-RCSTATCATQRLAEFLHRSSSSF[Sar]A[NMeI]LSSTEVGSETP-NH2; disulfide 2-7)",SS (SS indicates solubility ≥ 1mg/ml),SS (SS indicates solubility ≥ 1mg/ml),SS (SS indicates solubility ≥ 1mg/ml),SS (SS indicates solubility ≥ 1mg/ml),SS (SS indicates solubility ≥ 1mg/ml),SS (SS indicates solubility ≥ 1mg/ml),SS (SS indicates solubility ≥ 1mg/ml),210 pM,280 pM,–,–
"CC[C@H](C)[C@@H](C(=O)N[C@@H](CC(C)C)C(=O)N[C@@H](CO)C(=O)N[C@@H](CO)C(=O)N[C@H](C(=O)N[C@@H](CCC(=O)O)C(=O)N[C@H](C(=O)NCC(=O)N[C@@H](CO)C(=O)N[C@@H](CCC(=O)O)C(=O)N[C@H](C(=O)N1CCC[C@H]1C(N)=O)[C@@H](C)O)C(C)C)[C@@H](C)O)N(C)C(=O)[C@H](C)NC(=O)CN(C)C(=O)[C@H](Cc1ccccc1)NC(=O)[C@H](CO)NC(=O)[C@H](CO)NC(=O)[C@H](CO)NC(=O)[C@H](CO)NC(=O)[C@H](CCCNC(=N)N)NC(=O)[C@H](Cc1c[nH]cn1)NC(=O)[C@H](CC(C)C)NC(=O)[C@H](Cc1ccccc1)NC(=O)[C@H](CCC(=O)O)NC(=O)[C@H](C)NC(=O)[C@H](CC(C)C)NC(=O)[C@H](CCCNC(=N)N)NC(=O)[C@H](CCC(N)=O)NC(=O)[C@@H](NC(=O)[C@H](C)NC(=O)[C@@H]1CSSC[C@H](NC(=O)[C@H](CCCNC(=N)N)NC(=O)CC[C@H](NC(=O)CCCCCCCCCCCCCCCCCCC(=O)O)C(=O)O)C(=O)N[C@@H](CC(=O)O)C(=O)N[C@@H]([C@@H](C)O)C(=O)N[C@@H](C)C(=O)N[C@@H]([C@@H](C)O)C(=O)N1)[C@@H](C)O [Compound 127, [19CD]-isoGlu-RC()DTATC()ATQRLAEFLHRSSSSF-Gly(Me)-A-Ile(Me)-LSSTEVGSETP-NH2] ({C20 diacid-γGlu}-RCDTATCATQRLAEFLHRSSSSF[Sar]A[NMeI]LSSTEVGSETP-NH2; disulfide 2-7)",SS (SS indicates solubility ≥ 1mg/ml),SS (SS indicates solubility ≥ 1mg/ml),SS (SS indicates solubility ≥ 1mg/ml),SS (SS indicates solubility ≥ 1mg/ml),SS (SS indicates solubility ≥ 1mg/ml),SS (SS indicates solubility ≥ 1mg/ml),SS (SS indicates solubility ≥ 1mg/ml),–,580 pM,190 pM,–
"CC[C@H](C)[C@@H](C(=O)N[C@@H](CC(C)C)C(=O)N[C@@H](CO)C(=O)N[C@@H](CO)C(=O)N[C@H](C(=O)N[C@@H](CCC(=O)O)C(=O)N[C@H](C(=O)NCC(=O)N[C@@H](CO)C(=O)N[C@@H](CCC(=O)O)C(=O)N[C@H](C(=O)N1CCC[C@H]1C(N)=O)[C@@H](C)O)C(C)C)[C@@H](C)O)N(C)C(=O)[C@H](C)NC(=O)CN(C)C(=O)[C@H](Cc1ccccc1)NC(=O)[C@H](CO)NC(=O)[C@H](CO)NC(=O)[C@H](CO)NC(=O)[C@H](CO)NC(=O)[C@H](CCCNC(=N)N)NC(=O)[C@H](Cc1c[nH]cn1)NC(=O)[C@H](CC(C)C)NC(=O)[C@H](Cc1ccccc1)NC(=O)[C@H](CCC(=O)O)NC(=O)[C@H](C)NC(=O)[C@H](CC(C)C)NC(=O)[C@H](CCCNC(=N)N)NC(=O)[C@H](CCC(N)=O)NC(=O)[C@@H](NC(=O)[C@H](C)NC(=O)[C@@H]1CSSC[C@H](NC(=O)[C@H](CCCNC(=N)N)NC(=O)CC[C@H](NC(=O)CCCCCCCCCCCCCCCCCCC(=O)O)C(=O)O)C(=O)N2CCC[C@H]2C(=O)N[C@@H]([C@@H](C)O)C(=O)N[C@@H](C)C(=O)N[C@@H]([C@@H](C)O)C(=O)N1)[C@@H](C)O [Compound 129, [19CD]-isoGlu-RC()PTATC()ATQRLAEFLHRSSSSF-Gly(Me)-A-Ile(Me)-LSSTEVGSETP-NH2] ({C20 diacid-γGlu}-RCPTATCATQRLAEFLHRSSSSF[Sar]A[NMeI]LSSTEVGSETP-NH2; disulfide 2-7)",SS (SS indicates solubility ≥ 1mg/ml),SS (SS indicates solubility ≥ 1mg/ml),SS (SS indicates solubility ≥ 1mg/ml),SS (SS indicates solubility ≥ 1mg/ml),SS (SS indicates solubility ≥ 1mg/ml),SS (SS indicates solubility ≥ 1mg/ml),SS (SS indicates solubility ≥ 1mg/ml),–,–,150 pM,150 pM
